Source: PubChem BioAssay (NCI)
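48-hour exposure; five concentrations; linearly interpolated endpoints. The concentration for full growth arrest is given as TGI.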

Tests used:
Assay in all cases: NCI anticancer screen, dose series, 48 h
[1] = test system: MDA-MB-231 breast
[2] = test system: K-562 leukemia
[3] = test system: OVCAR-5 ovarian
[4] = test system: 786-0 renal
[5] = test system: HT29 colon
[6] = test system: OVCAR-8 ovarian
[7] = test system: SF-268 CNS

| Structure (SMILES) | TGI [1] [µM] | TGI [2] [µM] | TGI [3] [µM] | TGI [4] [µM] | TGI [5] [µM] | TGI [6] [µM] | TGI [7] [µM] |
| --- | --- | --- | --- | --- | --- | --- | --- |
| Cc1cnc(/N=c2\sc(C)cn2-c2ncc(C)s2)s1 | > 100 | > 100 | > 100 | > 100 | > 100 | > 100 | > 100 |
| CCCCCCCCCCCCCCCCCCNc1ccn(C2OC(CO)C(O)C2O)c(=O)n1 (stereo not drawn) | > 100 | > 100 | > 100 | > 100 | > 100 | > 100 | > 100 |
| CSc1nc(-c2ccc(C)cc2)c(C#N)c(=O)[nH]1 | > 100 | > 100 | > 100 | > 100 | > 100 | > 100 | > 100 |
| COC(=O)[C@@H](O)[C@]1(C(=O)OC)C2O[C@@H](OC)[C@@H]1CCCCCC[C@H]2O | > 100 | > 100 | > 100 | > 100 | > 100 | > 100 | > 100 |
| COc1ccc(Cc2c(N)[nH]c(=O)n(C)c2=O)cc1 | > 100 | > 100 | > 100 | > 100 | > 100 | > 100 | > 100 |
| COc1cc2nc(-c3cccs3)nc(N3C(c4ccc(O)cc4)=NNC(=O)c4ccccc43)c2cc1OC | 42.6 | > 100 | 84.2 | > 100 | 67.9 | > 100 | 77.4 |
| C=CC(C)(C)C(=C)C(=O)N(C)c1ccccc1I | > 100 | > 100 | > 100 | > 100 | > 100 | > 100 | > 100 |
| COC(=O)C1CC=C(SC(=O)c2ccccc2)N1C(=O)c1ccccc1 (stereo not drawn) | > 100 | > 100 | > 100 | > 100 | > 100 | > 100 | > 100 |
| Cc1nn(C(=O)c2ccncc2)c2c1C(c1ccc(Cl)cc1)SC(N)=N2 (stereo not drawn) | > 10 | > 10 | > 10 | > 10 | > 10 | > 10 | > 10 |
| CCN(CC)c1ccc(C2SCC(=O)N2c2ccc(NC(=O)c3ccc(N4C(=O)CSC4c4ccc(N(CC)CC)cc4)cc3)cc2)cc1 (stereo not drawn) | > 100 | > 100 | > 100 | > 100 | > 100 | > 100 | > 100 |
| CCN1CN(c2ccccc2)C2(CCN(CCCSc3ccc(F)cc3)CC2)C1=O | 29 | 37.1 | 20.5 | 26.6 | 13.3 | 30.5 | 28.3 |
| Cc1cc(OCc2nn(CN3CCN(C)CC3)c(=S)n2/N=C/c2ccc(-c3ccc(Cl)cc3Cl)o2)ccc1Cl | > 100 | > 100 | > 100 | > 100 | > 100 | > 100 | > 100 |
| CCCCn1cnnc1NS(=O)(=O)c1cc(C)c(Cl)cc1SCC(=O)O | > 10 | > 10 | > 10 | > 10 | > 10 | > 10 | > 10 |
| CCCCNc1c(CN)cnc2cc(Cl)ccc12 | 30 | 32.1 | 35.5 | 40.2 | 37 | 33.8 | 57.6 |
| O=C1c2cc3c(cc2CC12Cc1cc4c(cc1C2=O)CCC4)CCC3 | > 100 | > 100 | > 100 | > 100 | > 100 | > 100 | > 100 |
| CC(C)C1OC2(C)OC(=N)C1(C#N)C(C#N)(C#N)C2C (stereo not drawn) | 31.8 | > 100 | 71.1 | 51.7 | 41 | 79.5 | 56.4 |
| CC(=O)OC1COC(n2nc(/C=C/c3ccc(Cl)cc3)c(=O)n(/N=C/c3ccccc3)c2=S)C(OC(C)=O)C1OC(C)=O (stereo not drawn) | > 100 | > 100 | > 100 | > 100 | > 100 | > 100 | > 100 |
| COc1ccc(C(=O)/C=C/c2ccc(OCCSCCCCCCCCCCSCCOc3ccc(/C=C/C(=O)c4ccc(OC)cc4)cc3)cc2)cc1 | > 100 | > 100 | – | > 100 | > 100 | > 100 | > 100 |
| C(=C\c1nccs1)/c1cccc(/C=C/c2nccs2)n1 | > 50 | > 50 | > 50 | > 50 | > 50 | > 50 | > 50 |
| COC(=O)C12OC(C)(C(CC(=O)OC(C)(C)C)C1=O)C1C(=O)N(c3ccccc3)C(=O)C12 (stereo not drawn) | > 100 | > 100 | > 100 | > 100 | > 100 | > 100 | > 100 |
| O=c1[nH]/c(=C/c2ccc(OCc3ccccc3)cn2)c(=O)[nH]/c1=C/c1ccc(Cl)cc1 | > 100 | > 100 | > 100 | > 100 | > 100 | > 100 | > 52.4 |
| O=C(Cn1cc(F)c(=O)[nH]c1=O)C12CC3CC(CC(C3)C1)C2 | > 100 | > 100 | > 100 | > 100 | > 100 | > 100 | > 100 |
| Cc1nc2ccc(F)cc2c2c1CCO2 | 93.6 | > 100 | > 100 | > 100 | > 100 | > 100 | > 100 |
| CC(=O)Oc1ccc2c(C)cc(=O)oc2c1 | > 100 | > 100 | > 100 | > 100 | > 100 | > 100 | > 100 |
| Cc1nc(Nc2ccc(F)cc2)c2sc(=S)n(-c3ccc(F)cc3)c2n1 | 26.9 | > 100 | 36.3 | 21.6 | 19.9 | 35.9 | 23 |
| O=C(O)CCC(NC(=O)c1ccc(Nc2cnc3ccc(C(F)(F)F)cc3n2)cc1)C(=O)O (stereo not drawn) | > 100 | > 100 | > 100 | > 100 | > 100 | > 100 | > 100 |
| COc1ccc(C2C3CCc4ccccc4C3=NN2S(=O)(=O)c2ccc(Cl)cc2)cc1 (stereo not drawn) | > 100 | 41.8 | > 100 | 66.6 | 63.3 | > 100 | > 100 |
